The test system of the data set is HeyA8 cells. Description: In vitro anoikis (poly-HEMA plates, Annexin V-FITC/PI). The class given is cell-based, human. Particulars: HeyA8 cells in suspension, 72 h. How it is done:
In vitro anoikis. Cells were transfected with control or ZNF304 siRNA and transferred to 6-well tissue culture plates that were coated with polyhydroxyethylmethacrylate, and cells were cultured in these plates for 72 h at 37° C. in a 5% CO2 atmosphere. Cells were washed with PBS and were stained with Annexin V-FITC and PI solution (50 μg/ml) containing RNase A (25 μg/ml). After incubating the pellets for 30 min at 37° C., cell viability was analyzed by flow cytometry.
β1 integrin confers a survival advantage to tumor cells (Vachon, 2011). […] Therefore, the anoikis rates were examined at 24, 48, and 72 h in detached HeyA8 cells in vitro using polyhydroxyethylmethacrylate (poly-HEMA)-coated tissue culture plates that promote anchorage-independent cell growth (Sood et al., 2010).

This note sets out measurements from patent publication US10874622B2, “Dual assembly nanoparticles” (BOARD OF REGENTS, THE UNIVERSITY OF TEXAS SYSTEM, priority 2015, dated 2020).

Consider “Control siRNA: non-silencing siRNA without homology to any known human mRNA, UUCUCCGAACGUGUCACGUUU (SEQ ID NO: 15) (listed as RNA, chemistry not given here)”, for which the rate of anoikis worked out at 60%.
